In one assay the target is T1, human B1R receptor (Homo sapiens, UniProt P46663).
T1 construct: host or cells: CHO K1 cells (Chinese hamster ovary), stably transfected
T1 sequence (P46663 1-353): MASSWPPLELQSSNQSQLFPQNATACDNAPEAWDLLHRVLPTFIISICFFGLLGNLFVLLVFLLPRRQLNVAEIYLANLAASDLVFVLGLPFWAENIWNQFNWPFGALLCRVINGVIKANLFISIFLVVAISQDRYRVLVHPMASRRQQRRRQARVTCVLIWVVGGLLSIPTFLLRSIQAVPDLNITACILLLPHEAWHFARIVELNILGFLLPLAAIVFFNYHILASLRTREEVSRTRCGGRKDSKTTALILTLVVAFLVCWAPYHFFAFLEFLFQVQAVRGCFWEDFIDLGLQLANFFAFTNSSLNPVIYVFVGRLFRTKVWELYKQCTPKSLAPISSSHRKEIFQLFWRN
Description: Functional study on the bradykinin receptor 1 (B1R), FLIPR Ca2+ assay, hB1R cells. Format: cell-based. To be noted: agonist Lys-Des-Arg9-bradykinin 0.5 nM, % inhibition compared with the maximum achievable inhibition; for inhibition at 10 µM: CHO-K1, test substance 10 μM, read-out: B1R Antagonism, human [10 μM] % Inhibition; for B1R Antagonism, human [10 μM] % Inhibition: test substance 10 μM, hB1R CHO K1 cells. The procedure, abridged: (§1)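 Readout: peak Fluo-4 Ca2+ fluorescence, FLIPR. Stable CHO K1 hB1R or rB1R cells; cpd 10 μM, 10 min preincubation, then agonist (hB1R: Lys-Des-Arg9-BK 0.5 nM; rB1R: Des-Arg9-BK 100 nM). Value = % inhibition relative to maximal achievable inhibition.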

In another assay the target is T2, B1R receptor of the rat (Rattus norvegicus, UniProt P97583).
T2 construct: host or cells: CHO K1 cells (Chinese hamster ovary), stably transfected
T2 sequence (P97583 1-337): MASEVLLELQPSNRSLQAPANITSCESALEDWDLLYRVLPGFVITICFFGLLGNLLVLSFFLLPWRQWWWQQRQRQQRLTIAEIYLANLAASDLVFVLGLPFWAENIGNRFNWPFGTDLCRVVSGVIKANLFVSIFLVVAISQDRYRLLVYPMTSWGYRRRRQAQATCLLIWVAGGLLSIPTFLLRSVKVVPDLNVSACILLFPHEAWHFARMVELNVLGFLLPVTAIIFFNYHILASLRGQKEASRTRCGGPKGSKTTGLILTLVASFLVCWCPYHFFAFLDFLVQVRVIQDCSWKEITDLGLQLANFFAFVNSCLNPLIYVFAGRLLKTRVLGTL
The assay can be described thus: Functional study on the bradykinin receptor 1 (B1R), FLIPR Ca2+ assay, rB1R cells. It counts as cell-based. Conditions: agonist Des-Arg9-bradykinin 100 nM, % inhibition compared with the maximum achievable inhibition; for inhibition at 10 µM: CHO-K1, test substance 10 μM, read-out: B1R Antagonism, rat [10 μM] % Inhibition; for B1R Antagonism, rat [10 μM] % Inhibition: test substance 10 μM, rB1R CHO K1 cells. The procedure, abridged: as §1

A word on the inhibition: it is the change of the read-out against control, counted positive when it falls.

As to `COc1cc(C)c(S(=O)(=O)N2CCCC2COCC(=O)N2CCN(c3ccccc3OC)CC2)c(C)c1` (centres unmarked) [Example 491, 2-((1-(4-methoxy-2,6-dimethylphenylsulfonyl)pyrrolidin-2-yl)methoxy)-1-(4-(2-methoxyphenyl)piperazin-1-yl)ethanone], the inhibition at 10 µM on human B1R receptor stood at 96.3%; on B1R receptor of the rat it was 97.9%.

With `Cc1ccc(C)n1CCN1CCN(C(=O)COCC2CCCCN2S(=O)(=O)c2c(Cl)cccc2Cl)CC1` (centres unmarked) [Example 280, 2-((1-(2,6-dichlorophenylsulfonyl)piperidin-2-yl)methoxy)-1-(4-(2-(2,5-dimethyl-1H-pyrrol-1-yl)ethyl)piperazin-1-yl)ethanone], the inhibition at 10 µM on human B1R receptor was found to be 104%; on B1R receptor of the rat, 92%.

For `COc1cc(C)c(S(=O)(=O)N2CCCC2COCC(=O)NCc2ccc(N3CCN(C)CC3)cc2)c(C)c1` (centres unmarked) [Example 302, 2-((1-(4-methoxy-2,6-dimethylphenylsulfonyl)pyrrolidin-2-yl)methoxy)-N-(4-(4-methylpiperazin-1-yl)benzyl)acetamide], the “B1R Antagonism, human [10 μM] % Inhibition” value on human B1R receptor was determined as 100.69%. In addition, the “B1R Antagonism, rat [10 μM] % Inhibition” value on B1R receptor of the rat is listed as 102.41%.

In the case of `O=C(COCC1CCCN1S(=O)(=O)c1c(Cl)cc(Cl)cc1Cl)N(C1CC1)C1CCN(Cc2ccccc2)CC1` (centres unmarked) [Example 334, N-(1-benzylpiperidin-4-yl)-N-cyclopropyl-2-((1-(2,4,6-trichlorophenylsulfonyl)pyrrolidin-2-yl)methoxy)acetamide], the inhibition at 10 µM at human B1R receptor turned out to be 107%; on B1R receptor of the rat, 101%.

Consider `COc1cc(C)c(S(=O)(=O)N2CCCC2COCC(=O)N2CCC(c3cccnc3)C2)c(C)c1` (centres unmarked) [Example 272, 2-((1-(4-methoxy-2,6-dimethylphenylsulfonyl)pyrrolidin-2-yl)methoxy)-1-(3-(pyridin-3-yl)pyrrolidin-1-yl)ethanone], for which the inhibition at 10 µM at human B1R receptor turned out to be 97.1%; at B1R receptor of the rat it was 84.6%.

Regarding `O=C(COCC1CCCCN1S(=O)(=O)c1cccc(Br)c1)N1CCN(c2ccncc2)CC1` (centres unmarked) [Example 122, 2-((1-(3-bromophenylsulfonyl)piperidin-2-yl)methoxy)-1-(4-(pyridin-4-yl)piperazin-1-yl)ethanone], the figures for the inhibition at 10 µM at human B1R receptor and at B1R receptor of the rat were 12.1% and 13%, respectively.

`Cc1cc(Br)cc(C)c1S(=O)(=O)N1CCCCC1COCC(=O)N1CCN(c2ccncc2)CC1` (centres unmarked) [Example 150, 2-((1-(4-bromo-2,6-dimethylphenylsulfonyl)piperidin-2-yl)methoxy)-1-(4-(pyridin-4-yl)piperazin-1-yl)ethanone]: the inhibition at 10 µM came out at 98.3% on human B1R receptor and 99.1% on B1R receptor of the rat.

Take `COc1cc(C)c(S(=O)(=O)N2CCCCC2COCC(=O)N(C)CCC2CCC(N3CCCC3)CC2)c(C)c1` (centres unmarked) [Example 194, 2-((1-(4-methoxy-2,6-dimethylphenylsulfonyl)piperidin-2-yl)methoxy)-N-methyl-N-(2-(4-(pyrrolidin-1-yl)cyclohexyl)ethyl)acetamide]: the inhibition at 10 µM on human B1R receptor was 103%; on B1R receptor of the rat it was 100%.

Turning to `COc1cc(C)c(S(=O)(=O)N2CCCC2COCC(=O)N2CCN(Cc3ccccc3)CC2)c(C)c1` (centres unmarked) [Example 460, 1-(4-benzylpiperazin-1-yl)-2-((1-(4-methoxy-2,6-dimethylphenylsulfonyl)pyrrolidin-2-yl)methoxy)ethanone], the inhibition at 10 µM at human B1R receptor is 96.6%; at B1R receptor of the rat, 101%.

For `COc1cc(C)c(S(=O)(=O)N2CCCCC2COCC(=O)NCc2cccc(N3CCN(C)CC3)c2)c(C)c1` (centres unmarked) [Example 433, 2-((1-(4-methoxy-2,6-dimethylphenylsulfonyl)piperidin-2-yl)methoxy)-N-(3-(4-methylpiperazin-1-yl)benzyl)acetamide], the inhibition at 10 µM at human B1R receptor was found to be 103%; at B1R receptor of the rat it was 100%.

For `COc1cc(C)c(S(=O)(=O)N2CCCC2COCC(=O)NC(CN2CCCC2)c2ccccc2)c(C)c1` (centres unmarked) [Example 505, 2-((1-(4-methoxy-2,6-dimethylphenylsulfonyl)pyrrolidin-2-yl)methoxy)-N-(1-phenyl-2-(pyrrolidin-1-yl)ethyl)acetamide], the results for the inhibition at 10 µM on human B1R receptor and on B1R receptor of the rat were 74% and 101%, respectively.

For the molecule `COCCN1CCN(C(=O)COCC2CCCCN2S(=O)(=O)c2ccc(Cl)c(Cl)c2)CC1` (centres unmarked) [Example 46, 2-[1-(3,4-dichloro-phenylsulfonyl)-piperidin-2-ylmethoxy]-1-[4-(2-methoxy-ethyl)-piperazin-1-yl]-ethanone], the inhibition at 10 µM on human B1R receptor worked out at 68.2%; on B1R receptor of the rat, 0%.

`O=C(COCC1Cc2ccccc2CN1S(=O)(=O)c1ccc(Cl)cc1Cl)N1CCC(N2CCCCC2)CC1` (centres unmarked) [Example 9, 1-(1,4′-bipiperidin-1′-yl)-2-((2-(2,4-dichlorophenylsulfonyl)-1,2,3,4-tetrahydro-isoquinolin-3-yl)methoxy)ethanone]: the inhibition at 10 µM at human B1R receptor stood at 102%; on B1R receptor of the rat, 85.3%.

Regarding `COc1cc(C)c(S(=O)(=O)N2CCCCC2COCC(=O)NC2CCN(Cc3ccccc3)C2)c(C)c1` (centres unmarked) [Example 365, N-(1-benzylpyrrolidin-3-yl)-2-((1-(4-methoxy-2,6-dimethylphenylsulfonyl)piperidin-2-yl)methoxy)acetamide], the inhibition at 10 µM is 55.6% at human B1R receptor and 99.8% at B1R receptor of the rat.

As for `COc1cc(C)c(S(=O)(=O)N2CCCC2COCC(=O)NCCCN2CCN(Cc3ccccc3)CC2)c(C)c1` (centres unmarked) [Example 521, N-(3-(4-benzylpiperazin-1-yl)propyl)-2-((1-(4-methoxy-2,6-dimethylphenylsulfonyl)pyrrolidin-2-yl)methoxy)acetamide], the inhibition at 10 µM turned out to be 85.2% on human B1R receptor and 99.3% at B1R receptor of the rat.

`COc1cc(C)c(S(=O)(=O)N2CCCCC2COCC(=O)N2CCN(CCC#N)CC2)c(C)c1` (centres unmarked) [Example 410, 3-(4-(2-((1-(4-methoxy-2,6-dimethylphenylsulfonyl)piperidin-2-yl)methoxy)acetyl)piperazin-1-yl)propanenitrile]: the inhibition at 10 µM at human B1R receptor was 102%; on B1R receptor of the rat, 103%.

For `COc1cc(C)c(S(=O)(=O)N2CCCCC2COCC(=O)N2CCC(CCN3CCCCC3)CC2)c(C)c1` (centres unmarked) [Example 533, 2-((1-(4-methoxy-2,6-dimethylphenylsulfonyl)piperidin-2-yl)methoxy)-1-(4-(2-(piperidin-1-yl)ethyl)piperidin-1-yl)ethanone], the inhibition at 10 µM on human B1R receptor stood at 106%; on B1R receptor of the rat, 108%.

For `COc1cc(C)c(S(=O)(=O)N2CCCCC2COCC(=O)N2CCC(c3nc4cc(C)ccc4[nH]3)CC2)c(C)c1` (centres unmarked) [Example 397, 2-((1-(4-methoxy-2,6-dimethylphenylsulfonyl)piperidin-2-yl)methoxy)-1-(4-(5-methyl-1H-benzo[d]imidazol-2-yl)piperidin-1-yl)ethanone], the figures for the inhibition at 10 µM on human B1R receptor and on B1R receptor of the rat were 97.2% and 101%, respectively.

Turning to `COc1cc(OC)cc(N2CCN(C(=O)COCC3CCCCN3S(=O)(=O)c3c(C)cc(OC)cc3C)CC2)c1` (centres unmarked) [Example 340, 1-(4-(3,5-dimethoxyphenyl)piperazin-1-yl)-2-((1-(4-methoxy-2,6-dimethylphenylsulfonyl)piperidin-2-yl)methoxy)ethanone], the inhibition at 10 µM at human B1R receptor is 105%; at B1R receptor of the rat, 101%.

As to `COc1cc(C)c(S(=O)(=O)N2CCCC2COCC(=O)Nc2ccc(N3CCOCC3)c(Cl)c2)c(C)c1` (centres unmarked) [Example 493, N-(3-chloro-4-morpholinophenyl)-2-((1-(4-methoxy-2,6-dimethylphenylsulfonyl)pyrrolidin-2-yl)methoxy)acetamide], the inhibition at 10 µM was determined as 40.6% at human B1R receptor and 99.5% at B1R receptor of the rat.

Regarding `COc1cc(C)c(S(=O)(=O)N2CCCCC2COCC(=O)NCC(c2ccc(C(F)(F)F)cc2)N2CCOCC2)c(C)c1` (centres unmarked) [Example 249, 2-((1-(4-methoxy-2,6-dimethylphenylsulfonyl)piperidin-2-yl)methoxy)-N-(2-morpholin-2-(4-(trifluoromethyl)phenyl)ethyl)acetamide], the “B1R Antagonism, human [10 μM] % Inhibition” value at human B1R receptor came out at 59.22%. Further, the “B1R Antagonism, rat [10 μM] % Inhibition” value on B1R receptor of the rat stood at 92.36%.

With `Cc1nn(C)c(Cl)c1S(=O)(=O)N1CCCCC1COCC(=O)N1CCN(C2CCN(C)CC2)CC1` (centres unmarked) [Example 128, 2-((1-(5-chloro-1,3-dimethyl-1H-pyrazol-4-ylsulfonyl)piperidin-2-yl)methoxy)-1-(4-(1-methylpiperidin-4-yl)piperazin-1-yl)ethanone], the inhibition at 10 µM on human B1R receptor was 90.8%; at B1R receptor of the rat it was 94.5%.
